What was measured:
HeLa = test: Cytotoxicity against human HeLa cells assessed as growth inhibition; type: functional, cell-based
HL-60 = test: Cytotoxicity against human HL-60 cells assessed as growth inhibition; type: functional, cell-based
Staphylococcus aureus = test: Antibacterial activity against Staphylococcus aureus 209 assessed as growth inhibition; type: functional, organism-based
Escherichia coli = test: Antibacterial activity against Escherichia coli HO141 assessed as growth inhibition; type: functional, organism-based
Aspergillus fumigatus = test: Antifungal activity against Aspergillus fumigatus Af293 assessed as growth inhibition; type: functional, organism-based
Pyricularia oryzae = test: Antifungal activity against Pyricularia oryzae kita-1 assessed as growth inhibition; type: functional, organism-based
Candida albicans = test: Antifungal activity against Candida albicans JCM1542 assessed as growth inhibition; type: functional, organism-based
Plasmodium falciparum [1] = test: Antimalarial activity against wild-type Plasmodium falcipuram 3D7 assessed as growth inhibition; type: functional, organism-based
T98G = test: Cytotoxicity against human T98G cells assessed as growth inhibition; type: functional, cell-based
MKN-74 = test: Cytotoxicity against human MKN74 cells assessed as growth inhibition; type: functional, cell-based
Plasmodium falciparum [2] = test: Antimalarial activity against chloroquine-resistant Plasmodium falcipuram K1 assessed as growth inhibition; type: functional, organism-based

In the case of `C\C=C(/C=C(C)/C=C/C=C/C=C(\C)C(=O)[C@]12O[C@H]1[C@@](O)(CCO)NC2=O)C(=O)OC`, the IC50 (HeLa) is reported as 14.1 µM, the IC50 (HL-60) is reported as 15.8 µM and the IC50 (Staphylococcus aureus) is reported as over 70 µM. The IC50 (Escherichia coli) was over 70 µM, the IC50 (Aspergillus fumigatus) was over 70 µM and the IC50 (Pyricularia oryzae) was over 70 µM. The IC50 (Candida albicans) was over 70 µM and the IC50 (Plasmodium falciparum [1]) was 1.8 µM.

With `CC(=O)O[C@H]1C(=O)[C@@]2(C)[C@H]([C@H](OC(=O)c3ccccc3)[C@]3(O)C[C@H](OC(=O)[C@H](O)[C@@H](NC(=O)c4ccccc4)c4ccccc4)C(C)=C1C3(C)C)[C@]1(OC(C)=O)CO[C@@H]1C[C@@H]2O` [PACLITAXEL] the IC50 (HeLa) was 0.0043 µM, the IC50 (HL-60) was 0.0022 µM and the IC50 (T98G) was 8.7 µM.

Compound `C\C=C(/C=C(C)/C=C/C=C/C=C(\C)C(=O)C1C[C@@](O)(CCO)NC1=O)C(=O)OC` (some centres not stated) has an IC50 (HeLa) of 21.5 µM, an IC50 (HL-60) of 37.7 µM and an IC50 (MKN-74) of over 70 µM. It also gave an IC50 (T98G) of over 70 µM, an IC50 (Staphylococcus aureus) of over 70 µM and an IC50 (Escherichia coli) of over 70 µM. For the same compound, the IC50 (Aspergillus fumigatus) was over 70 µM, the IC50 (Pyricularia oryzae) was 6.7 µM and the IC50 (Candida albicans) was over 70 µM. It also gave an IC50 (Plasmodium falciparum [1]) of 0.0015 µM and an IC50 (Plasmodium falciparum [2]) of 0.0015 µM.

For `O=C(N[C@H](CO)[C@H](O)c1ccc([N+](=O)[O-])cc1)C(Cl)Cl` [CHLORAMPHENICOL], the IC50 (Staphylococcus aureus) was 5.4 µM and the IC50 (Escherichia coli) was 4.6 µM.

For `C[C@@H]1CC[C@H]2[C@@H](C)C(=O)O[C@@H]3O[C@@]4(C)CC[C@@H]1[C@]32OO4` [ARTEMISININ], the IC50 (Plasmodium falciparum [1]) was 0.019 µM.

With `C[C@@H]1[C@H](O)[C@@H](C)/C=C/C=C/C=C/C=C/C=C/C=C/C=C/[C@H](O[C@@H]2O[C@H](C)[C@@H](O)[C@H](N)[C@@H]2O)C[C@@H]2O[C@](O)(C[C@@H](O)C[C@@H](O)[C@H](O)CC[C@@H](O)C[C@@H](O)CC(=O)O[C@H]1C)C[C@H](O)[C@H]2C(=O)O` [AMPHOTERICIN B] the IC50 (Aspergillus fumigatus) was 0.21 µM, the IC50 (Pyricularia oryzae) was 0.16 µM and the IC50 (Candida albicans) was 0.03 µM.

`C\C=C(/C=C(C)/C=C/C=C/C=C(\C)C(=O)[C@H]1C(=O)N[C@]2(O)CCO[C@H]12)C(=O)OC` was tested, and the IC50 (HeLa) was 24.9 µM, the IC50 (HL-60) was 17.4 µM and the IC50 (Staphylococcus aureus) was over 70 µM. For the same compound, the IC50 (Escherichia coli) was over 70 µM, the IC50 (Aspergillus fumigatus) was over 70 µM and the IC50 (Pyricularia oryzae) was over 70 µM. For the same compound, the IC50 (Candida albicans) was over 70 µM and the IC50 (Plasmodium falciparum [1]) was 0.15 µM.

Work on `C\C=C(/C=C(C)/C=C/C=C/C=C(\C)C(=O)[C@@]1(O)C(=O)N[C@]2(O)CCO[C@H]12)C(=O)OC` yielded an IC50 (HeLa) of over 70 µM, an IC50 (HL-60) of over 70 µM and an IC50 (Plasmodium falciparum [1]) of 0.67 µM.

Work on `C\C=C(/C=C(C)/C=C/C=C/C=C(\C)C(=O)[C@H]1C(=O)N[C@]2(O)CCO[C@H]12)C(=O)O` yielded an IC50 (HeLa) of over 70 µM, an IC50 (HL-60) of over 70 µM and an IC50 (Staphylococcus aureus) of over 70 µM. It also gave an IC50 (Escherichia coli) of over 70 µM, an IC50 (Aspergillus fumigatus) of over 70 µM and an IC50 (Pyricularia oryzae) of over 70 µM. The IC50 (Candida albicans) was over 70 µM and the IC50 (Plasmodium falciparum [1]) was 43.9 µM.

Work on `C\C=C(/C=C(C)/C=C/C=C/C=C(\C)C(O)[C@]12O[C@H]1[C@@](O)(CCO)NC2=O)C(=O)OC` (some centres not stated) yielded an IC50 (HeLa) of over 70 µM, an IC50 (HL-60) of over 70 µM and an IC50 (MKN-74) of over 70 µM. The IC50 (T98G) was over 70 µM, the IC50 (Staphylococcus aureus) was over 70 µM and the IC50 (Escherichia coli) was over 70 µM. It also gave an IC50 (Aspergillus fumigatus) of over 70 µM, an IC50 (Pyricularia oryzae) of over 70 µM and an IC50 (Candida albicans) of over 70 µM. For the same compound, the IC50 (Plasmodium falciparum [1]) was 62.1 µM.
